From BindingDB's records for doi:10.1016/j.bmcl.2004.04.065 (Eli Lilly, 2004)

Molecular target: TGF-beta receptor type-1
Assay: Inhibitory activity against TGF-beta type I receptor

IC50	SMILES
104 nM	c1ccc(-c2nn3c(c2-c2ccnc4ccccc24)CCC3)nc1 [4-(2-(pyridin-2-yl)-5,6-dihydro-4H-pyrrolo[1,2-b]pyrazol-3-yl)quinoline]
110 nM	CCSc1ccc2c(-c3c(-c4ccccn4)nn4c3CCC4)ccnc2c1 [7-Ethylsulfanyl-4-(2-pyridin-2-yl-5,6-dihydro-4H-pyrrolo[1,2-b]pyrazol-3-yl)-quinoline]
9290 nM	CCS(=O)(=O)c1ccc2c(-c3c(-c4ccccn4)nn4c3CCC4)ccnc2c1 [7-Ethanesulfonyl-4-(2-pyridin-2-yl-5,6-dihydro-4H-pyrrolo[1,2-b]pyrazol-3-yl)-quinoline]

More lines, now with the values behind:

SMILES	IC50
Fc1ccc(-c2nn3c(c2-c2ccnc4ccccc24)CCC3)nc1 [4-[2-(5-Fluoro-pyridin-2-yl)-5,6-dihydro-4H-pyrrolo[1,2-b]pyrazol-3-yl]-quinoline]	151 nM
Cc1cccc(-c2nn3c(c2-c2ccnc4cc(Cl)ccc24)CCC3)n1 [7-chloro-4-(2-(6-methylpyridin-2-yl)-5,6-dihydro-4H-pyrrolo[1,2-b]pyrazol-3-yl)quinoline]	48 nM
CCc1cccc(-c2nn3c(c2-c2ccnc4ccccc24)CCC3)n1 [4-[2-(6-Ethyl-pyridin-2-yl)-5,6-dihydro-4H-pyrrolo[1,2-b]pyrazol-3-yl]-quinoline]	71 nM
